Measurements taken from BindingDB's records for PubMed 10900230 (University of Michigan, 2000).

target: T1, Alpha-2A adrenergic receptor (Sus scrofa, UniProt P18871)
T1 sequence (P18871 whole entry): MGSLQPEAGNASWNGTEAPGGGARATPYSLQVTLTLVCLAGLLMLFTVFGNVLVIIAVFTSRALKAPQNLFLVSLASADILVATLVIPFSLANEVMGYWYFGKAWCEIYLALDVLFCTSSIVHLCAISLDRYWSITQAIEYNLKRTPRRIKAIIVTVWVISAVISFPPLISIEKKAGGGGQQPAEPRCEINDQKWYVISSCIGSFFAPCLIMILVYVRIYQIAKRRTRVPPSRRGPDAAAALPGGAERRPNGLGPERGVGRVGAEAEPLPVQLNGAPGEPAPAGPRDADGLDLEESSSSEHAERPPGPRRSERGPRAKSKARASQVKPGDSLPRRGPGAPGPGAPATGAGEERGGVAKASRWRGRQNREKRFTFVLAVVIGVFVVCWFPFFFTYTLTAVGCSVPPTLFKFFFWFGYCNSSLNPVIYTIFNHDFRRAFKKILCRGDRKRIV

| Structure (SMILES) | Ki [nM] |
| --- | --- |
| Clc1cccc(Cl)c1N=C1NCCN1 [2-(2,6-dichloroanilino)-2-imidazoline] | 85.1 |
| Cc1cccc(C)c1N=C1NCCCS1 [(5,6-Dihydro-4H-[1,3]thiazin-2-yl)-(2,6-dimethyl-phenyl)-amine] | 3160 |
| CNCC(O)c1ccc(O)c(O)c1 (stereo unspecified) [EPINEPHRINE] | 646 |
| NC(N)=NN=Cc1c(Cl)cccc1Cl [Guanabenz] | 57.5 |
| Clc1cc(I)cc(Cl)c1N=C1NCCN1 [Iodoclonidine-p] | 51.3 |
| CC(C)NCC(O)c1ccc(O)c(O)c1 (stereo not drawn) [Isoproterenol,(+)] | > 10000 |
| CCN1CCc2nc(N)oc2CC1 [NSC_169743] | > 10000 |
| NCC(O)c1ccc(O)c(O)c1 (stereo not drawn) [Noradrenaline,(+)] | 5620 |
| Cc1cc(C(C)(C)C)c(O)c(C)c1CC1=NCCN1 [SMR000059324] | 35.5 |
| Brc1c(NC2=NCCN2)ccc2nccnc12 [UK 14,304] | 479 |
| Nc1cc(Cl)c(N=C2NCCN2)c(Cl)c1 [p-AMINOCLONIDINE] | 288 |
